Measurements reported in PubChem BioAssay (NCI).
“And” between values parts separate entries of the source, which are not always exact repeats. Equal values may be shown once.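 Five compound concentrations were applied to cells in 96-well plates for 48 hours; endpoints were derived by simple linear interpolation of the resulting dose-response curve. Abbreviation: GI50, concentration required for 50% inhibition of growth. The concentration for full growth arrest is given as TGI.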

What was measured:
Test in all cases: inhibition of tumour cell growth, NCI panel, 48 h
[1] = test system: 786-0 renal
[2] = test system: BT-549 breast
[3] = test system: HCT-15 colon
[4] = test system: HL-60(TB) leukemia
[5] = test system: HOP-62 NSCLC
[6] = test system: OVCAR-3 ovarian
[7] = test system: RPMI-8226 leukemia
[8] = test system: SN12C renal
[9] = test system: SNB-75 CNS
[10] = test system: SW-620 colon

| SMILES | GI50 [1] | TGI [1] | GI50 [2] | TGI [2] | GI50 [3] | TGI [3] | GI50 [4] | TGI [4] | GI50 [5] | TGI [5] | GI50 [6] | TGI [6] | GI50 [7] | TGI [7] [µM] | GI50 [8] | TGI [8] | GI50 [9] | TGI [9] [µM] | GI50 [10] | TGI [10] |
| --- | --- | --- | --- | --- | --- | --- | --- | --- | --- | --- | --- | --- | --- | --- | --- | --- | --- | --- | --- | --- |
| COc1cc2c3c(n(CCCO)c(=O)c2cc1OC)-c1cc2c(cc1C3=O)OCO2 | 2.46 µM | 10.1 µM | 2.22 µM | 49 µM | 33.4 µM | > 100 µM | 2.34 µM | 10.4 µM | 4.28 µM | 78.3 µM | 21.6 µM | > 81.9 µM | 11.6 µM | > 78 | 3.53 µM | > 54.3 µM | 16.1 µM | > 79.1 | 4.75 µM | > 100 µM |
| O=c1oc2ccccc2cc1-c1ccc([N+](=O)[O-])cc1 | – | > 100 µM | – | > 100 µM | – | > 100 µM | – | > 100 µM | – | > 100 µM | – | > 100 µM | – | > 100 | – | > 100 µM | – | > 100 | – | > 100 µM |
| COC(=O)/C=C1\SC(=Nc2ccc(C(F)(F)F)cc2)N(CCc2c[nH]c3ccccc23)C1=O | 1.56 µM | 2.95 µM | 1.53 µM | 3.16 µM | 1.38 µM | 2.95 µM | 1.23 µM | 3.98 µM | – | – | 1.5 µM | 2.9 µM | 1.13 µM | 4.3 | 1.69 µM | 3.45 µM | 1.21 µM | 2.48 | 1.57 µM | 3.29 µM |
| O=C1C(Cl)=C(Oc2ccccc2)C(=O)c2ccccc21 | 15.6 µM | 29.1 µM | 2.86 µM | 9.3 µM | 12.1 µM | 31.5 µM | 2.54 µM | 17.7 µM | 8.55 µM | 22.2 µM | 1.83 µM | 3.42 µM | 2.69 µM | 11.4 | 11.2 µM | 29.5 µM | 1.93 µM | 12.9 | 1.81 µM | 3.57 µM |
| O=C1NC(=O)[C@@H](c2cn3c4c(cccc24)CCC3)[C@@H]1c1c[nH]c2ccccc12 | 0.544 µM and 0.809 µM | > 10 µM and 18.8 µM | 0.522 µM and 1.1 µM | > 10 µM and 17.7 µM | 0.338 µM and 0.505 µM | > 10 µM and 14.9 µM | 0.348 µM and 0.35 µM | > 4.06 µM and 6.88 µM | 0.423 µM and 0.465 µM | > 10 µM and 16.8 µM | 0.273 µM and 0.28 µM | > 2.22 µM and 0.789 µM | 0.379 µM and 2.93 µM | > 93.5 | 0.556 µM and 0.888 µM | > 10 µM and 15.9 µM | 0.348 µM and 0.198 µM | – | 0.391 µM and 0.354 µM | > 10 µM and 15.2 µM |
| COc1ccc(/C=C(\C#N)n2nnc3cc(Cl)ccc32)cc1 | 0.709 µM | 8.61 µM | 1.13 µM | > 100 µM | 0.328 µM | 11.4 µM | 0.327 µM | > 100 µM | 0.887 µM | 11.1 µM | 0.253 µM | 0.695 µM | 0.694 µM | > 100 | 0.662 µM | > 100 µM | 0.193 µM | 0.983 | 0.351 µM | > 100 µM |
| O=C(CCl)Nc1ccccc1SCc1cc(Cl)cc2c1OCOC2 | 12.6 µM | 26.4 µM | 3.52 µM | 11.5 µM | 6.4 µM | 21.6 µM | 2.15 µM | 4.31 µM | 19.8 µM | 41.5 µM | 2.08 µM | 4.24 µM | 6.96 µM | 40.6 | 6.69 µM | 21 µM | 8.55 µM | 23.3 | 3.73 µM | 17.1 µM |
| N#Cc1c2ccccc2c2nnc3cc(C(F)(F)F)ccc3n12 | > 100 µM | > 100 µM | 57.2 µM | > 100 µM | 93.4 µM | > 100 µM | 58.6 µM | > 100 µM | 27.6 µM | 58.3 µM | 79.9 µM | > 100 µM | 55.1 µM | > 100 | – | – | > 100 µM | > 100 | > 100 µM | > 100 µM |
| CCNCCNc1cc(-c2ccc(Cl)cc2)c(C#N)c2nc3ccccc3n12 | 1.49 µM | 2.87 µM | 1.75 µM | 3.34 µM | 1.25 µM | 2.64 µM | 1.65 µM | 3.65 µM | 2.37 µM | 5.4 µM | 1.45 µM | 2.85 µM | 2.3 µM | 4.92 | 1.89 µM | 3.85 µM | 1.33 µM | 2.67 | 1.52 µM | 3.14 µM |
| COc1ccc(-c2nc3sccn3c2/C=C/C(=O)c2cc(OC)c(OC)c(OC)c2)cc1OC | 3.36 µM | 20.4 µM | 2.43 µM | 7.95 µM | 3.24 µM | > 100 µM | 1.84 µM | 4.98 µM | 2.58 µM | 6.68 µM | 2.18 µM | 5.71 µM | 1.19 µM | 4.95 | 3.06 µM | 42.8 µM | 1.99 µM | 5.43 | – | – |
| O=C1c2cccnc2-c2nc(-c3ccccn3)cc3c2c1nc1ccccc13 | 0.0825 µM | 0.26 µM | 0.249 µM | 0.672 µM | < 0.0209 µM | 0.259 µM | 0.066 µM | – | 0.139 µM | 1.49 µM | 0.161 µM | 0.309 µM | 0.253 µM | 1.03 | 0.21 µM | 1.19 µM | 1.69 µM | 3.81 | – | – |
| COC(=O)C/C(C)=C/[C@@H](O)[C@H]1O[C@@H]2CC/C(Cl)=C/C/C=C(/C)[C@H](OC(C)=O)CC(=O)O[C@@H]1C2 | 0.708 µM | 2.53 µM | 1.89 µM | 7.73 µM | 8.01 µM | > 25 µM | 1.8 µM | 11.9 µM | 2.5 µM | 7.17 µM | – | – | 1.44 µM | 7.24 | 1.01 µM | 7.4 µM | 1.16 µM | 6.14 | 19.1 µM | > 25 µM |
| COc1cc(/C=C2\CC(C)CC3C2=NN(c2ccccc2)C3c2cc(OC)c(OC)c(OC)c2)cc(OC)c1OC (stereo unspecified) | 27 µM | > 100 µM | 10.1 µM | 39.9 µM | 11.2 µM | 25.6 µM | 6.48 µM | 90.6 µM | – | – | 14.1 µM | > 100 µM | 3 µM | 26.5 | 19.8 µM | > 100 µM | 25.4 µM | 87.5 | 10.7 µM | 22.5 µM |
